In ChEMBL document CHEMBL3627688, “Structure-based hybridization, synthesis and biological evaluation of novel tetracyclic heterocyclic azathioxanthone analogues as potential antitumor agents” (Eur J Med Chem, 2015):

Experiments:
SK-OV-3 = assay: Growth inhibition of human SKOV3 cells assessed as cell growth at 10 uM incubated for 48 hrs by sulforhodamine B assay; assay type: functional; settings: SK-OV-3, 48 h, read-out: Activity
NCI-H322M = assay: Growth inhibition of human NCI-H322M cells assessed as cell growth at 10 uM incubated for 48 hrs by sulforhodamine B assay; assay type: functional; settings: read-out: Activity
MDA-MB-468 = assay: Growth inhibition of human MDA-MB-468 cells assessed as cell growth at 10 uM incubated for 48 hrs by sulforhodamine B assay; assay type: functional; settings: MDA-MB-468, 48 h, read-out: Activity
OVCAR-8 = assay: Growth inhibition of human OVCAR8 cells assessed as cell growth at 10 uM incubated for 48 hrs by sulforhodamine B assay; assay type: functional; settings: OVCAR-8, 48 h, read-out: Activity
[1] = Growth inhibition of human NCI-ADR-RES cells assessed as cell growth at 10 uM incubated for 48 hrs by sulforhodamine B assay; assay type: functional; settings: read-out: Activity
[2] = Growth inhibition of human RPMI8226 cells assessed as cell growth at 10 uM incubated for 48 hrs by sulforhodamine B assay; assay type: functional; settings: RPMI-8226, 48 h, read-out: Activity
HCT-15 = assay: Growth inhibition of human HCT15 cells assessed as cell growth at 10 uM incubated for 48 hrs by sulforhodamine B assay; assay type: functional; settings: HCT-15, 48 h, read-out: Activity
A498 = assay: Growth inhibition of human A498 cells assessed as cell growth at 10 uM incubated for 48 hrs by sulforhodamine B assay; assay type: functional; settings: A498, 48 h, read-out: Activity
OVCAR-5 = assay: Growth inhibition of human OVCAR5 cells assessed as cell growth at 10 uM incubated for 48 hrs by sulforhodamine B assay; assay type: functional; settings: OVCAR-5, 48 h, read-out: Activity
[3] = Growth inhibition of human SF295 cells assessed as cell growth at 10 uM incubated for 48 hrs by sulforhodamine B assay; assay type: functional; settings: SF-295, 48 h, read-out: Activity
HCT-116 = assay: Growth inhibition of human HCT116 cells assessed as cell growth at 10 uM incubated for 48 hrs by sulforhodamine B assay; assay type: functional; settings: HCT-116, 48 h, read-out: Activity
KM12 = assay: Growth inhibition of human KM12 cells assessed as cell growth at 10 uM incubated for 48 hrs by sulforhodamine B assay; assay type: functional; settings: KM12, 48 h, read-out: Activity
SNB-75 = assay: Growth inhibition of human SNB75 cells assessed as cell growth at 10 uM incubated for 48 hrs by sulforhodamine B assay; assay type: functional; settings: SNB-75, 48 h, read-out: Activity
DU-145 = assay: Antiproliferative activity against human DU145 cells assessed as cell viability incubated for 72 hrs by MTT assay; assay type: functional, cell-based; settings: DU-145, 72 h
[4] = Growth inhibition of human COLO205 cells assessed as cell growth at 10 uM incubated for 48 hrs by sulforhodamine B assay; assay type: functional; settings: COLO 205, 48 h, read-out: Activity
[5] = Growth inhibition of human HCC2998 cells assessed as cell growth at 10 uM incubated for 48 hrs by sulforhodamine B assay; assay type: functional; settings: HCC 2998, 48 h, read-out: Activity
PC-3 = assay: Growth inhibition of human PC3 cells assessed as cell growth at 10 uM incubated for 48 hrs by sulforhodamine B assay; assay type: functional; settings: PC-3, 48 h, read-out: Activity
IGROV-1 = assay: Growth inhibition of human IGROV1 cells assessed as cell growth at 10 uM incubated for 48 hrs by sulforhodamine B assay; assay type: functional; settings: IGROV-1, 48 h, read-out: Activity
[6] = Growth inhibition of human NCI60 cells assessed as cell growth at 10 uM incubated for 48 hrs by sulforhodamine B assay; assay type: functional; settings: NCI60, 48 h, read-out: Activity
SK-MEL-2 = assay: Growth inhibition of human SK-MEL-2 cells assessed as cell growth at 10 uM incubated for 48 hrs by sulforhodamine B assay; assay type: functional; settings: SK-MEL-2, 48 h, read-out: Activity
[7] = Growth inhibition of human RXF393 cells assessed as cell growth at 10 uM incubated for 48 hrs by sulforhodamine B assay; assay type: functional; settings: RXF 393, 48 h, read-out: Activity
NCI-H522 = assay: Growth inhibition of human NCI-H522 cells assessed as cell growth at 10 uM incubated for 48 hrs by sulforhodamine B assay; assay type: functional; settings: NCI-H522, 48 h, read-out: Activity
786-0 = assay: Growth inhibition of human 786-0 cells assessed as cell growth at 10 uM incubated for 48 hrs by sulforhodamine B assay; assay type: functional; settings: 786-0, 48 h, read-out: Activity
UACC-62 = assay: Growth inhibition of human UACC62 cells assessed as cell growth at 10 uM incubated for 48 hrs by sulforhodamine B assay; assay type: functional; settings: UACC-62, 48 h, read-out: Activity
CAKI-1 = assay: Growth inhibition of human Caki1 cells assessed as cell growth at 10 uM incubated for 48 hrs by sulforhodamine B assay; assay type: functional; settings: CAKI-1, 48 h, read-out: Activity
Malme-3M = assay: Growth inhibition of human MALME-3M cells assessed as cell growth at 10 uM incubated for 48 hrs by sulforhodamine B assay; assay type: functional; settings: read-out: Activity
[8] = Growth inhibition of human EKVX cells assessed as cell growth at 10 uM incubated for 48 hrs by sulforhodamine B assay; assay type: functional; settings: read-out: Activity

Row | SMILES | growth at 10 µM (NCI-H322M) | growth at 10 µM (MDA-MB-468) | growth at 10 µM (OVCAR-8) | growth at 10 µM [1] | growth at 10 µM [2] | growth at 10 µM (HCT-15) | growth at 10 µM (OVCAR-5) | growth at 10 µM [3] | growth at 10 µM (HCT-116) | growth at 10 µM (KM12) | growth at 10 µM (SNB-75) | IC50 (DU-145) | growth at 10 µM [4] | growth at 10 µM [5] | growth at 10 µM (PC-3) | growth at 10 µM (IGROV-1) | growth at 10 µM [6] | growth at 10 µM (SK-MEL-2) | growth at 10 µM [7] | growth at 10 µM (NCI-H522) | also measured
1 | O=c1c2ccc(Cl)cc2sc2c(Cl)nc3ccccc3c12 | 100% | 98.6% | 102% | 103% | 100% | 102% | 100% | 90.3% | 102% | 111% | 77.9% | > 15 µM | 112% | 123% | 91.6% | 96.1% | 98.1% | 95.5% | 103% | 96.8% | growth at 10 µM (SK-OV-3): 101%; growth at 10 µM (A498): 106%; growth at 10 µM (786-0): 105%; growth at 10 µM (UACC-62): 89.7%; growth at 10 µM (CAKI-1): 94.3%; growth at 10 µM (Malme-3M): 95.9%
2 | O=C(O)c1c(Sc2ccc(Cl)cc2)c(O)nc2ccccc12 | 101% | 105% | 115% | 97.8% | 98.1% | 108% | 112% | 99% | 104% | 113% | 82.2% | > 15 µM | 109% | 101% | 93.2% | 104% | 102% | 120% | 114% | 81.6% | growth at 10 µM [8]: 89.5%; growth at 10 µM (786-0): 104%; growth at 10 µM (UACC-62): 102%; growth at 10 µM (CAKI-1): 76.3%; growth at 10 µM (Malme-3M): 107%
